Reference: ChEMBL document CHEMBL1155423, “Unprecedented NES non-antagonistic inhibitor for nuclear export of Rev from Sida cordifolia” (Bioorg Med Chem Lett, 2010)

assay: Inhibition of CRM1 interaction with HIV1 HA-tagged Rev in HeLa cells assessed as inhibition of Rev nuclear export by indirect fluorescent antibody technique; type: cell-based

Row | IC50 [µM] | SMILES
1 | > 30 | CCCCCCCCCC(O)CCCCCCCC(=O)O (configuration not stated)
2 | 7.2 | CCCCC/C=C\C=C\C(O)CCCCCCCC(=O)O (configuration not stated)
3 | 15 | CCCCC/C=C\C=C\CCCCCCCCC(=O)O
4 | > 30 | CCCCC/C=C\C=C\C(O)CCC(=O)O (configuration not stated)
5 | > 30 | CCCCC/C=C\C=C\C(C)O (configuration not stated)
6 | > 30 | CCCCC/C=C\C=C\C(O)CCCCC(=O)O (configuration not stated)
7 | 20.8 | CC(O)CCCCCCCC(=O)O (configuration not stated)
